Test [1] concerns the target GDP-loaded wild-type KRAS (WT) (Homo sapiens, UniProt P01116). The test can be described thus: KRAS (GDP) biochemical TR-FRET probe displacement assay, WT. The settings on record: 2 hours. In kind it is binding. As to the method: (§1) Compounds are tested for binding to GDP-loaded wild-type KRAS (WT), KRAS-G12C, KRAS-G12D, and KRAS-G12V in a 384-well assay format using a TR-FRET probe displacement assay in buffer consisting of 50 mM Hepes (pH 7.4), 150 mM NaCl, 5 mM MgCl2 and 0.005% Tween-20. […] Compounds are serially diluted (1:3) in DMSO. The LabCyte ECHO Acoustic dispenser was used to pre-spot the assay plates (384-well Non-Binding Surface plates, Corning, Catalog #3824) with 50 nL of compound. 5 μL of 2X enzyme concentration is added to the pre-spotted plates and incubated for 30 minutes before adding 5 μL of 2X concentration of Eu-streptavidin and Cy-5 labelled probe (10 μL final reaction volume). The plates are incubated at room temperature for 2 hours before measuring TR-FRET ratio (665 nm/615 nm) on the Envision multimode plate reader. The ratios are normalized to a positive (saturating concentration of known inhibitor) and negative (DMSO) control and plotted against the log of compound concentration.
(In TR-FRET formats the signal depends on donor and acceptor labels being close together.)

Test [2] deals with GDP-loaded KRAS-G12C (Homo sapiens, UniProt P01116, G12C). The test can be described thus: KRAS (GDP) biochemical TR-FRET probe displacement assay, G12C. The settings on record: 2 hours. In kind it is binding. As to the method:
as §1

Test [3] has as its target GDP-loaded KRAS-G12V (Homo sapiens, UniProt P01116, G12V). The test can be described thus: KRAS (GDP) biochemical TR-FRET probe displacement assay, G12V. In kind it is binding. The settings on record: 2 hours. As to the method:
as §1

Test [4] addresses GDP-loaded KRAS-G12D (Homo sapiens, UniProt P01116, G12D). The test can be described thus: KRAS (GDP) biochemical TR-FRET probe displacement assay, G12D. In kind it is binding. As to conditions: 2 hours. How it is done:
as §1

Test [5] concerns cellular pERK in Kuramochi (WT KRAS) cells. The test can be described thus: Cell based pERK assay, Kuramochi. The settings on record: Kuramochi (WT KRAS), 2 hours incubation, HTRF phospho-ERK1/2; read-out: Kuramochi pERK EC50. How it is done: (§2) Compounds were tested in a 384-well assay format for their ability to inhibit cellular pERK in Kuramochi (WT KRAS), MIA-PaCa-2 (KRAS-G12C), ASPC-1 (KRAS G12D), and NCI-H441 (KRAS-G12V) cell-lines. Compounds were serially diluted (1:3) in DMSO. On day −1, 80 μL of cells were plated per well in the 384 well tissue-culture plates (Greiner: Cat #781080) to seed 5000 cells per wells of AsPC-1 or 7500 cells of MIA-PaCa-2, NCI-H441, and Kuramochi cell lines in RPMI (Corning: Cat #10-040-CM) with 10% fetal bovine serum (FBS) (HyClone: Cat #SH30071-03) and 1× penicillin-streptomycin-glutamate (PSG) (Corning: Cat #30-009-CI) for […] and Kuramochi cell lines and DMEM (Corning: Cat #15-018-CM) with 10% FBS and 1×PSG for MIA-PaCa-2 cell line. The plates were then incubated overnight at 37° C. and 5% CO2. On day 0, 400 nL of compound/well was added into the cell plates and mixed 5 times by pipetting using a Beckmann Biomek FX. The cell plates were then incubated for 2 hours at 37° C. and 5% CO2. HTRF Advanced Phospho-ERK1/2 (THR202/TYR204) Detection Kits (PerkinElmer: Cat #64AERPEG) were used to prepare the lysis and detection solution according to manufacturer protocol. Following the 2 hour incubation, 70 μL of medium was aspirated from the plates and 10 uL of lysis and detection solution was added to the plates using a Biotek EL406 washer and dispenser. Plates were sealed and stored overnight at room temperature. HTRF ratio (665 nm/615 nm) was read by Envision multimode reader (PerkinElmer) the next day. The TR-FRET ratios were normalized to a positive (saturating concentration of known inhibitor) and negative (DMSO) control and plotted against the log of compound concentration.

Test [6] relates to cellular pERK in MIA-PaCa-2 (KRAS-G12C) cells. The test can be described thus: Cell based pERK assay, MIA-PaCa-2. The settings on record: Homo sapiens; MIA-PaCa-2 (KRAS-G12C), 2 hours incubation, HTRF phospho-ERK1/2; read-out: MIAPaCa2 pERK EC50. As to the method:
as §2

Test [7] concerns cellular pERK in ASPC-1 (KRAS G12D) cells. The test can be described thus: Cell based pERK assay, ASPC-1. The settings on record: Homo sapiens, ASPC1; ASPC-1 (KRAS G12D), 2 hours incubation, HTRF phospho-ERK1/2; read-out: AsPC1 pERK EC50. How it is done: as §2
Test [8] concerns cellular pERK in NCI-H441 (KRAS-G12V) cells. The test can be described thus: Cell based pERK assay, NCI-H441. As to conditions: Homo sapiens; NCI-H441 (KRAS-G12V), 2 hours incubation, HTRF phospho-ERK1/2; read-out: H441 PERK EC50. How it is done:
as §2

The source of these data is patent US20250042922A1, “KRAS MODULATING COMPOUNDS” (priority 2023, published 2025).

By IC50 is commonly meant the concentration at which inhibition is half-maximal. Low readings indicate higher potency, high ones lower potency. As a reminder, the EC50 is the concentration that produces a half-maximal response.

Chain of GDP-loaded KRAS-G12V (P01116 1-188 isoform P01116-2 G12V): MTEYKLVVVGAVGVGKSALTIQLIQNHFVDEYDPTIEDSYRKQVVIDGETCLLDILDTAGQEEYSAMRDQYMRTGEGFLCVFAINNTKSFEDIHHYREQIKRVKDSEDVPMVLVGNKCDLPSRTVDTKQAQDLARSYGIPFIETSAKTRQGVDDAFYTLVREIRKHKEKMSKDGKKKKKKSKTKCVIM
Chain of GDP-loaded wild-type KRAS (WT) (P01116 1-188 isoform P01116-2): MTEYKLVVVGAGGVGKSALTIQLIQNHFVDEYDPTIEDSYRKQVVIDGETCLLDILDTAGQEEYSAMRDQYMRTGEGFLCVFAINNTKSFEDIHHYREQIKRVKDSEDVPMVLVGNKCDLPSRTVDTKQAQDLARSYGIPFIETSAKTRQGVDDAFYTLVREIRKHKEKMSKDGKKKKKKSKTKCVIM
Chain of GDP-loaded KRAS-G12C (P01116 1-188 isoform P01116-2 G12C): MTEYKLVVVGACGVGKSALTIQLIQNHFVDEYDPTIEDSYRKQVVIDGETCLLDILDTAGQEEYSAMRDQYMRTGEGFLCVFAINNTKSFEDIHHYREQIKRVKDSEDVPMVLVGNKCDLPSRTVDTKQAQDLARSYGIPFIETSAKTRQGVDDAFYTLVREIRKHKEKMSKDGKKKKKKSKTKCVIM
Chain of GDP-loaded KRAS-G12D (P01116 1-188 isoform P01116-2 G12D): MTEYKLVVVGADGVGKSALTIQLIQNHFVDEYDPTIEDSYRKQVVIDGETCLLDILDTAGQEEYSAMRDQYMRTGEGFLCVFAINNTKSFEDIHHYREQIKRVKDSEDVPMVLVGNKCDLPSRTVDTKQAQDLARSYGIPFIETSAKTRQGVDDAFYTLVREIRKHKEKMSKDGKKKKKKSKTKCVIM

Turning to `N#Cc1c(N)sc2c(F)ccc(-c3nc4c5c(nc(OCC67CCCN6CCC7)nc5c3F)N3C[C@@]5(F)CC[C@](F)(N5)[C@H]3CCC4)c12` [Example 4-7, 2-amino-7-fluoro-4-((6aR,7R,10S)-1,7,10-trifluoro-13-((tetrahydro-1H-pyrrolizin-7a(5H)-yl)methoxy)-5,6,6a,7,8,9,10,11-octahydro-4H-3,11a,12,14,15-pentaaza-7,10-methanocyclohepta[4,5]cycloocta[1,2,3-de]naphthalen-2-yl)benzo[b]thiophene-3-carbonitrile], the IC50 in test [1] was determined as 10.1 nM; in test [2], 28.5 nM; in test [3], 44.1 nM; in test [4] it was 86.8 nM. The EC50 in test [5] stood at 15.6 nM; in test [6] it was 59.8 nM; in test [7] it was 840 nM.
Turning to `C#Cc1c(F)ccc2cc(N)cc(-c3nc4c5c(nc(OC[C@@H]6CCCN6C)nc5c3F)N3C[C@@]5(F)CC[C@](F)(N5)[C@H]3CCC4)c12` [Example 4-8, 5-ethynyl-6-fluoro-4-((6aR,7R,10S)-1,7,10-trifluoro-13-(((S)-1-methylpyrrolidin-2-yl)methoxy)-5,6,6a,7,8,9,10,11-octahydro-4H-3,11a,12,14,15-pentaaza-7,10-methanocyclohepta[4,5]cycloocta[1,2,3-de]naphthalen-2-yl)naphthalen-2-amine], the IC50 in test [1] came out at 6.19 nM; in test [2], 13.2 nM; in test [3] it was 34.7 nM; in test [4], 57.8 nM. For the same compound, the EC50 in test [5] is 5.11 nM; in test [6] it was 6.73 nM; in test [7], 169 nM.
Consider `C[C@H]1Cc2nc(-c3cc(N)cc(Cl)c3C(F)(F)F)c(F)c3nc(OCC45CCCN4CCC5)nc(c23)N2C[C@@]3(F)CC[C@](F)(N3)[C@H]12` [Example 4-17, 3-chloro-5-((8S,8aS,9R,12S)-4,9,12-trifluoro-8-methyl-2-((tetrahydro-1H-pyrrolizin-7a(5H)-yl)methoxy)-7,8,8a,9,10,11,12,13-octahydro-1,3,6,13a,14-pentaaza-9,12-methanonaphtho[1,8-ab]heptalen-5-yl)-4-(trifluoromethyl)aniline], for which the IC50 in test [1] was determined as 0.161 nM; in test [2], 0.479 nM; in test [3] it was 0.865 nM; in test [4], 2.79 nM. Further, the EC50 was found to be 4.32 nM in test [5], 1.72 nM in test [6] and 38 nM in test [7].
For `C#Cc1c(F)c(F)cc2cc(N)cc(-c3nc4c5c(nc(OCC67CCCN6CCC7)nc5c3F)N3C[C@@]5(F)CC[C@](F)(N5)[C@@H]3CC4)c12` [Example 4-35, 5-ethynyl-6,7-difluoro-4-((5aS,6R,9S)-1,6,9-trifluoro-12-((tetrahydro-1H-pyrrolizin-7a(5H)-yl)methoxy)-4,5,5a,6,7,8,9,10-octahydro-3,10a,11,13,14-pentaaza-6,9-methanonaphtho[1,8-ab]heptalen-2-yl)naphthalen-2-amine], the EC50 worked out at 3.69 nM in test [5], 0.787 nM in test [6], 5.32 nM in test [8] and 33.7 nM in test [7].
Taken in the same sequence, the figures for `C#Cc1c(F)ccc2cc(N)cc(-c3nc4c5c(nc(OC[C@@]67CCCN6CC(=C)C7)nc5c3F)N3C[C@@]5(F)CC[C@](F)(N5)[C@H]3CCC4)c12` [Example 4-38, 5-ethynyl-6-fluoro-4-((6aR,7R,10S)-1,7,10-trifluoro-13-(((S)-2-methylenetetrahydro-1H-pyrrolizin-7a(5H)-yl)methoxy)-5,6,6a,7,8,9,10,11-octahydro-4H-3,11a,12,14,15-pentaaza-7,10-methanocyclohepta[4,5]cycloocta[1,2,3-de]naphthalen-2-yl)naphthalen-2-amine] were 2.69 nM, 0.134 nM, 1.01 nM and 2.2 nM.
On to `C#Cc1c(F)ccc2cc(N)cc(-c3nc4c5c(nc(OC[C@]6(C)CN(C)CC/C6=C\F)nc5c3F)N3C[C@@]5(F)CC[C@](F)(N5)[C@@H]3[C@@H](C)C4)c12` [Example 4-39, 5-ethynyl-6-fluoro-4-((5S,5aS,6R,9S)-1,6,9-trifluoro-12-(((S,E)-4-(fluoromethylene)-1,3-dimethylpiperidin-3-yl)methoxy)-5-methyl-4,5,5a,6,7,8,9,10-octahydro-3,10a,11,13,14-pentaaza-6,9methanonaphtho[1,8-ab]heptalen-2-yl)naphthalen-2-amine], for which the IC50 in test [2] came to 0.383 nM; in test [3] it was 0.583 nM; in test [4], 1.12 nM. For the same compound, the EC50 worked out at 3.76 nM in test [5], 0.253 nM in test [6], 0.689 nM in test [8] and 6.04 nM in test [7].
As to `C#Cc1c(F)ccc2cc(N)cc(-c3nc4c5c(nc(OC[C@@]67CCCN6CC(=C)C7)nc5c3F)N3C[C@@]5(F)CC[C@](F)(N5)[C@@H]3[C@@H](C)C4)c12` [Example 4-40, 5-ethynyl-6-fluoro-4-((5S,5aS,6R,9S)-1,6,9-trifluoro-5-methyl-12-(((S)-2-methylenetetrahydro-1H-pyrrolizin-7a(5H)-yl)methoxy)-4,5,5a,6,7,8,9,10-octahydro-3,10a,11,13,14-pentaaza-6,9-methanonaphtho[1,8-ab]heptalen-2-yl)naphthalen-2-amine], the EC50 was 1.65 nM in test [5], 0.067 nM in test [6], 0.38 nM in test [8] and 0.71 nM in test [7].
For `Nc1cc(-c2nc3c4c(nc(OCC56CCCN5CCC6)nc4c2F)N2C[C@@]4(F)CC[C@](F)(N4)[C@H]2CCC3)c2c(F)c(F)ccc2c1` [Example 5-4, 5,6-difluoro-4-[(4S,7R,8R)-4,7,15-trifluoro-18-(1,2,3,5,6,7-hexahydropyrrolizin-8-ylmethoxy)-2,13,17,19,21-pentazapentacyclo[10.7.1.14,7.02,8.016,20]henicosa-1(19),12(20),13,15,17-pentaen-14-yl]naphthalen-2-amine], in that order: 5.01 nM, 28.7 nM, 104 nM and 416 nM.
Taken in the same sequence, the figures for `CCc1c(F)ccc2cc(O)cc(-c3nc4c5c(nc(OCC67CCCN6CCC7)nc5c3F)N3C[C@@]5(F)CC[C@](F)(N5)[C@H]3CCC4)c12` [Example 6-1, 5-ethyl-6-fluoro-4-((6aR,7R,10S)-1,7,10-trifluoro-13-((tetrahydro-1H-pyrrolizin-7a(5H)-yl)methoxy)-5,6,6a,7,8,9,10,11-octahydro-4H-3,11a,12,14,15-pentaaza-7,10-methanocyclohepta[4,5]cycloocta[1,2,3-de]naphthalen-2-yl)naphthalen-2-ol] were 3.55 nM, 1.52 nM, 19.4 nM and 31.8 nM.
